Experimental data reported in patent US20070049593A1 (priority 2004, published 2007).
Structures can show the parent of a compound that is named as a salt.

biological target: T1, HCV polymerase (Hepatitis C virus genotype 1b, UniProt P26663); assay: biochemical; set-up: species or system HCV BK strain; conditions: not given
T1 construct: a region encoding NS5B (J Virol 1991 March, 65(3), 1105-13, 544 amino acids after deletion of 47 amino acids on the C-terminal); 6xHis (C); made in house; host or cells: Escherichia coli
T1 sequence (P26663 2420-2963): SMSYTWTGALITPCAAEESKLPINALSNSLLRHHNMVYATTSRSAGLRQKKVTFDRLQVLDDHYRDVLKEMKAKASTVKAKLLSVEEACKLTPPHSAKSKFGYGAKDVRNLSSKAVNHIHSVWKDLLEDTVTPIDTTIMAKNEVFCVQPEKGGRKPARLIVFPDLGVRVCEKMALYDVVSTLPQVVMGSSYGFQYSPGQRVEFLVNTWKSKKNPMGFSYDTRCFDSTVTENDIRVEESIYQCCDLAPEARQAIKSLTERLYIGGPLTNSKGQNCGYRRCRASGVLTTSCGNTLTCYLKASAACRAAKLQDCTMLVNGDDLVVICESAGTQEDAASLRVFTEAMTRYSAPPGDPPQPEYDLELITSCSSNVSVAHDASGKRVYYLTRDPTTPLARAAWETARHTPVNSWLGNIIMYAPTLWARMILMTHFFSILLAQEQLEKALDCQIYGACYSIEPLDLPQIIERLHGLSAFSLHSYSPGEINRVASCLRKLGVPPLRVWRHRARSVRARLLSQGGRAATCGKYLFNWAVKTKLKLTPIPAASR
Method in brief: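 Recombinant HCV BK-strain NS5B (C-terminal 47 aa deleted, His6-tagged, E. coli), 0.5 μg/ml, run with 5 μg/ml in vitro-transcribed RNA template (polyU/3′X), ATP/GTP/CTP 50 μM, UTP 2 μM plus [3H]UTP, pH 7.5, 25° C, 90 min. TCA-precipitated RNA counted by scintillation; IC50 from activity with vs without compound.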

Structure (SMILES) | IC50
COc1ccc2c(c1)N(CCN1CCCOCC1)CCn1c-2c(C2CCCCC2)c2ccc(C(=O)O)cc21 [Example 1-510, 13-cyclohexyl-3-methoxy-5-[2-(1,4-oxazepan-4-yl)ethyl]-6,7-dihydro-5H-benzo[5,6][1,4]diazepino[7,1-a]indole-10-carboxylic acid dihydrochloride] | < 100 nM
COc1ccc2c(c1)OCCn1c-2c(C2CCCCC2)c2ccc(C(=O)N[C@@H](Cc3ccc(OC(C)=O)cc3)c3noc(=O)[nH]3)cc21 [Example 2-430, 4-[(S)-2-[(12-cyclohexyl-3-methoxy-6,7-dihydro-5-oxa-7a-azadibenzo[a,e]azulene-9-carbonyl)amino]-2-(5-oxo-4,5-dihydro-1,2,4-oxadiazol-3-yl)ethyl]phenyl acetate] | < 100 nM
Cc1ccc2c(c1)N(CCN1CCC[C@@H](CCN(C)C(=O)OC(C)(C)C)C1)CCn1c-2c(C2CCCCC2)c2ccc(C(=O)O)cc21 [Example 1-557, 5-(2-{(S)-3-[2-(N-tert-butoxycarbonyl-N-methylamino)ethyl]piperidin-1-yl)ethyl)-13-cyclohexyl-3-methyl-6,7-dihydro-5H-benzo[5,6][1,4]diazepino[7,1-a]indole-10-carboxylic acid monohydrochloride] | < 100 nM
CCN(CCN1CCOCC1)c1cccc2c1OCCn1c-2c(C2CCCCC2)c2ccc(C(=O)O)cc21 [Example 2-170, 12-cyclohexyl-4-{N-ethyl-N-[2-(morpholin-4-yl)ethyl]amino}-6,7-dihydro-5-oxa-7a-azadibenzo[a,e]azulene-9-carboxylic acid dihydrochloride] | < 100 nM
CN(C(=O)CN1CCOCC1)c1ccc(N2CCOCC2)c(COc2ccc3c(c2)OCCn2c-3c(C3CCCCC3)c3ccc(C(=O)O)cc32)c1 [Example 2-22, 12-cyclohexyl-3-[5-{N-methyl-N-[2-(morpholin-4-yl)acetyl]amino}-2-(morpholin-4-yl)benzyloxy]-6,7-dihydro-5-oxa-7a-azadibenzo[a,e]azulene-9-carboxylic acid dihydrochloride] | < 100 nM
CCN1CCN(CCOc2cccc3c2OCCn2c-3c(C3CCCCC3)c3ccc(C(=O)O)cc32)CC1 [Example 2-456, 12-cyclohexyl-4-[2-(4-ethylpiperazin-1-yl)ethoxy]-6,7-dihydro-5-oxa-7a-azadibenzo[a,e]azulene-9-carboxylic acid dihydrochloride] | < 100 nM
CC(=O)NS(=O)(=O)c1ccc2c(C3CCCCC3)c3n(c2c1)CCN(CCN1CCCCC1)c1cc(C)ccc1-3 [Example 1-520, N-acetyl-13-cyclohexyl-3-methyl-5-[2-(piperidin-1-yl)ethyl]-6,7-dihydro-5H-benzo[5,6][1,4]diazepino[7,1-a]indole-10-sulfonamide dihydrochloride] | < 100 nM
CC1CC(C)CN(C(=O)CN2CCn3c(c(C4CCCCC4)c4ccc(C(=O)O)cc43)-c3ccccc32)C1 (centres unmarked) [Example 1-187, 13-cyclohexyl-5-[2-(3,5-dimethylpiperidin-1-yl)-2-oxoethyl]-6,7-dihydro-5H-benzo[5,6][1,4]diazepino[7,1-a]indole-10-carboxylic acid monohydrochloride] | < 100 nM
O=C(O)c1ccc2c(C3CCCCC3)c3n(c2c1)CCN(CCN1CCCOCC1)c1ccccc1-3 [Example 1-69, 13-cyclohexyl-5-[2-(1,4-oxazepan-4-yl)ethyl]-6,7-dihydro-5H-benzo[5,6][1,4]diazepino[7,1-a]indole-10-carboxylic acid dihydrochloride] | < 100 nM
COc1ccc2c(c1)OCCn1c-2c(C2CCCCC2)c2ccc(C(=O)NC(C)(C)c3nc4cc(N(C)C)ccc4[nH]3)cc21 [Example 2-367, N-[1-(5-dimethylamino-1H-benzimidazol-2-yl)-1-methylethyl]-12-cyclohexyl-3-methoxy-6,7-dihydro-5-oxa-7a-azadibenzo[a,e]azulene-9-carboxamide] | < 100 nM
CCOC(=O)N1CCN(CCN2CCn3c(c(C4CCCCC4)c4ccc(C(=O)O)cc43)-c3ccccc32)CC1 [Example 1-97, 13-cyclohexyl-5-[2-(4-ethoxycarbonylpiperazin-1-yl)ethyl]-6,7-dihydro-5H-benzo[5,6][1,4]diazepino[7,1-a]indole-10-carboxylic acid dihydrochloride] | < 100 nM
O=C(O)c1ccc2c(C3CCCCC3)c3n(c2c1)CCN(CCCOC1CCCCO1)c1ccccc1-3 (centres unmarked) [Example 1-105, 13-cyclohexyl-5-[3-(tetrahydropyran-2-yloxy)propyl]-6,7-dihydro-5H-benzo[5,6][1,4]diazepino[7,1-a]indole-10-carboxylic acid] | < 100 nM
COCC1CCCCN1CCN1CCn2c(c(C3CCCCC3)c3ccc(C(=O)O)cc32)-c2ccc(Cl)cc21 (centres unmarked) [Example 1-304, 3-chloro-13-cyclohexyl-5-[2-(2-methoxymethylpiperidin-1-yl)ethyl]-6,7-dihydro-5H-benzo[5,6][1,4]diazepino[7,1-a]indole-10-carboxylic acid dihydrochloride] | < 100 nM
CC(C)N1CCCC(CCN2CCn3c(c(C4CCCCC4)c4ccc(C(=O)O)cc43)-c3ccccc32)C1 (centres unmarked) [Example 1-202, 13-cyclohexyl-5-[2-(1-isopropylpiperidin-3-yl)ethyl]-6,7-dihydro-5H-benzo[5,6][1,4]diazepino[7,1-a]indole-10-carboxylic acid dihydrochloride] | < 100 nM
O=C(O)c1ccc2c(C3CCCCC3)c3n(c2c1)CCN(CC(=O)N1CCOCC1)c1cc(F)ccc1-3 [Example 1-109, 13-cyclohexyl-3-fluoro-5-[2-(morpholin-4-yl)-2-oxoethyl]-6,7-dihydro-5H-benzo[5,6][1,4]diazepino[7,1-a]indole-10-carboxylic acid monohydrochloride] | < 100 nM
CC(C)N(CCN1CCCCC1)c1cccc2c1OCCn1c-2c(C2CCCCC2)c2ccc(C(=O)O)cc21 [Example 2-161, 12-cyclohexyl-4-{N-isopropyl-N-[2-(piperidin-1-yl)ethyl]amino}-6,7-dihydro-5-oxa-7a-azadibenzo[a,e]azulene-9-carboxylic acid dihydrochloride] | < 100 nM
CCN1CCCN(CCN2CCn3c(c(C4CCCCC4)c4ccc(C(=O)O)cc43)-c3ccccc32)CC1 [Example 1-286, 13-cyclohexyl-5-[2-(4-ethyl-1,4-diazepan-1-yl)ethyl]-6,7-dihydro-5H-benzo[5,6][1,4]diazepino[7,1-a]indole-10-carboxylic acid trihydrochloride] | < 100 nM
COCCn1c(C(C)(C)NC(=O)c2ccc3c(C4CCCCC4)c4n(c3c2)CCOc2cc(OC)ccc2-4)nc2ccccc21 [Example 2-434, N-{1-[1-(2-methoxyethyl)-1H-benzimidazol-2-yl]-1-methylethyl}-12-cyclohexyl-3-methoxy-6,7-dihydro-5-oxa-7a-azadibenzo[a,e]azulene-9-carboxamide] | < 100 nM
O=C(O)c1ccc2c(C3CCCCC3)c3n(c2c1)CCN(CC(=O)N1CCN(c2ccccc2)CC1)c1ccccc1-3 [Example 1-81, 13-cyclohexyl-5-[2-oxo-2-(4-phenylpiperazin-1-yl)ethyl]-6,7-dihydro-5H-benzo[5,6][1,4]diazepino[7,1-a]indole-10-carboxylic acid dihydrochloride] | < 100 nM
O=C(O)c1ccc2c(C3CCCCC3)c3n(c2c1)CCOc1c-3cccc1N(CCN1CCOCC1)CCN1CCOCC1 [Example 2-361, 4-{bis[2-(morpholin-4-yl)ethyl]amino}-12-cyclohexyl-6,7-dihydro-5-oxa-7a-azadibenzo[a,e]azulene-9-carboxylic acid trihydrochloride] | < 100 nM
CC(C)(NC(=O)c1ccc2c(C3CCCCC3)c3n(c2c1)CCOc1ccccc1-3)C(=O)Nc1cccc(O)c1 [Example 2-260, N-[1-(3-hydroxyphenylcarbamoyl)-1-methylethyl]-12-cyclohexyl-6,7-dihydro-5-oxa-7a-azadibenzo[a,e]azulene-9-carboxamide] | < 100 nM
COc1ccc2c(c1)OCCn1c-2c(C2CCCCC2)c2ccc(C(=O)NC3(c4nc5cc(CO)c(OC)cc5[nH]4)CCC3)cc21 [Example 2-413, N-[1-(5-hydroxymethyl-6-methoxy-1H-benzimidazol-2-yl)cyclobutyl]-12-cyclohexyl-3-methoxy-6,7-dihydro-5-oxa-7a-azadibenzo[a,e]azulene-9-carboxamide] | < 100 nM
COc1ccc2c(c1)OCCn1c-2c(C2CCCCC2)c2ccc(C(=O)NC(C)(C)c3nc(N(C)C)c4ccc(C(=O)O)cc4n3)cc21 [Example 2-404, 2-{1-[(12-cyclohexyl-3-methoxy-6,7-dihydro-5-oxa-7a-azadibenzo[a,e]azulene-9-carbonyl)amino]-1-methylethyl]-4-dimethylaminoquinazoline-7-carboxylic acid] | < 100 nM
CC1CCCCN1CCN1CCn2c(c(C3CCCCC3)c3ccc(C(=O)O)cc32)-c2ccccc21 (centres unmarked) [Example 1-156, 13-cyclohexyl-5-[2-(2-methylpiperidin-1-yl)ethyl]-6,7-dihydro-5H-benzo[5,6][1,4]diazepino[7,1-a]indole-10-carboxylic acid] | < 100 nM
O=C(N[C@H](CO)Cc1ccc(O)cc1)c1ccc2c(C3CCCCC3)c3n(c2c1)CCOc1ccccc1-3 [Example 2-217, N—[(S)-1-hydroxymethyl-2-(4-hydroxyphenyl)ethyl]-12-cyclohexyl-6,7-dihydro-5-oxa-7a-azadibenzo[a,e]azulene-9-carboxamide] | < 100 nM

same assay, conditions: 25° C., 90 min; [5,6-3H]UTP incorporation into RNA; read-out: HCV polymerase inhibitory activity IC50

Structure (SMILES) | IC50
CCC1CCCN(CCN2CCn3c(c(C4CCCC4)c4ccc(C(=O)O)cc43)-c3ccc(Cl)cc32)C1 (centres unmarked) [Example 1-389, 3-chloro-13-cyclopentyl-5-[2-(3-ethylpiperidin-1-yl)ethyl]-6,7-dihydro-5H-benzo[5,6][1,4]diazepino[7,1-a]indole-10-carboxylic acid] | < 100 nM
